From ChEMBL document CHEMBL2073927, “ABCG2 transports sulfated conjugates of steroids and xenobiotics” (J Biol Chem, 2003) come the findings set out here.

Where a name gives a salt, the structure may show the parent alone.

The target in data set [1] is T1, ABCG2 (Homo sapiens, UniProt Q9UNQ0).
T1 sequence (Q9UNQ0 whole entry): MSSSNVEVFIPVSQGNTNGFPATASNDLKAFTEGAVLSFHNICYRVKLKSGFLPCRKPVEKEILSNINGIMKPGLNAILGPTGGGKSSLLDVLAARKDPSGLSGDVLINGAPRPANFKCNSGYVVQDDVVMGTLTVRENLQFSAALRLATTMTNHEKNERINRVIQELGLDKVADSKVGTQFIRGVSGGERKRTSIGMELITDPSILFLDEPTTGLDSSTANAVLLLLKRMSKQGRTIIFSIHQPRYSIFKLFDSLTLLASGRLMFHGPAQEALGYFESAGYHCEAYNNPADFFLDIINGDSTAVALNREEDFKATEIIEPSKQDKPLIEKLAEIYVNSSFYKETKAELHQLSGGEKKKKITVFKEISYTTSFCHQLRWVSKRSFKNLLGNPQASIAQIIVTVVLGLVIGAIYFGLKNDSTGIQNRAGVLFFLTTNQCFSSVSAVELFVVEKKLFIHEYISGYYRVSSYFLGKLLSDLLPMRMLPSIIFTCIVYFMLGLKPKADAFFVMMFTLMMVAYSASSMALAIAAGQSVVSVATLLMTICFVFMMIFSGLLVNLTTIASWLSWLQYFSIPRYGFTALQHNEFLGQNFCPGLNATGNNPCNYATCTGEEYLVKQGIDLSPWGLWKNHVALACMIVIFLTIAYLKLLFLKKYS
Description: TP_TRANSPORTER: inhibition of E1S uptake by Estrone at a concentration of 200uM in membrane vesicles from ABCG2-expressing P388 cells. The data set is classed as functional, cell membranes, Membrane vesicle. On the set-up: scale not given: the % may be the effect or the level left. The note with it: mouse, probe E1S, read-out: Activity.

Data set [2] deals with T1, ABCG2. The data set can be described thus: TP_TRANSPORTER: inhibition of E1S uptake by Pravastatin at a concentration of 200uM in membrane vesicles from ABCG2-expressing P388 cells. The note with it: mouse, probe E1S, read-out: Activity. The data set is classed as functional, cell membranes, Membrane vesicle. On the set-up: scale not given: the % may be the effect or the level left.

Data set [3] has as its target T2, Broad substrate specificity ATP-binding cassette transporter ABCG2 (Homo sapiens, UniProt Q9UNQ0).
T2 sequence (Q9UNQ0 whole entry): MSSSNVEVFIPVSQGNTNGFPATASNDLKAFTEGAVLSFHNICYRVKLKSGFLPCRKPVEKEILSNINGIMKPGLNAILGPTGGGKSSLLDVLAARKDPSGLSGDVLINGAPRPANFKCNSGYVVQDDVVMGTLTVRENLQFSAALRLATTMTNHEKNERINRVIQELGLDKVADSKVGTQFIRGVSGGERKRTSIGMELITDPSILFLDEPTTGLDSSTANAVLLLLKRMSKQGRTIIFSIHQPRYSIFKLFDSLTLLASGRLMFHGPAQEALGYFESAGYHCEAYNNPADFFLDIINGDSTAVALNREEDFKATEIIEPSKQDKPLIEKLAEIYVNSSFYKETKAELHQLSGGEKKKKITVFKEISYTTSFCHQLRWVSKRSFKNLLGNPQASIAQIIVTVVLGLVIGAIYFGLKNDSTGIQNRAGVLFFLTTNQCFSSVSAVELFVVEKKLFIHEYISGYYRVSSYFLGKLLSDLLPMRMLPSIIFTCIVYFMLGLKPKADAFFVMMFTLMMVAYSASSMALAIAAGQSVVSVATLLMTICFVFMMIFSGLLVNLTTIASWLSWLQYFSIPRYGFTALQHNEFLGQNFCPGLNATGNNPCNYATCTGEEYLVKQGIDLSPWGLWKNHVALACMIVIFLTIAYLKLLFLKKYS
Description: (§1) TP_TRANSPORTER: uptake (vesicle) in membrane vesicles from ABCG2-expressing P388 cells. The data set is classed as functional, cell membranes. As to conditions: mouse.

In data set [4] the target is T1, ABCG2. The data set can be described thus: TP_TRANSPORTER: inhibition of E1S uptake by 4-Methylumbelliferone glucuronide at a concentration of 500uM in membrane vesicles from ABCG2-expressing P388 cells. The data set is classed as functional, cell membranes, Membrane vesicle. The arrangement: scale not given: the % may be the effect or the level left. The note with it: mouse, probe E1S, read-out: Activity.

Data set [5] concerns the target T1, ABCG2. Description: TP_TRANSPORTER: inhibition of E1S uptake by 2.4-dinitrophenyl-S-glutathione at a concentration of 80uM in membrane vesicles from ABCG2-expressing P388 cells. The data set is classed as functional, cell membranes, Membrane vesicle. On the set-up: scale not given: the % may be the effect or the level left. As to conditions: mouse, probe E1S, read-out: Activity.

In data set [6] the target is T1, ABCG2. The data set can be described thus: TP_TRANSPORTER: inhibition of E1S uptake by Doxorubicin at a concentration of 1000uM in membrane vesicles from ABCG2-expressing P388 cells. The format is functional, cell membranes, Membrane vesicle. The arrangement: scale not given: the % may be the effect or the level left. As to conditions: mouse, probe E1S, read-out: Activity.

For data set [7], the target named is T2, Broad substrate specificity ATP-binding cassette transporter ABCG2. Description: TP_TRANSPORTER: inhibition of E1S uptake by 6-hydroxy-5,7-dimetyl-2-metylamino-4-(3-pyridylmethyl) benzothiazole glucronid at a concentration of 250uM in membrane vesicles from ABCG2-expressing P388 cells. The format is functional, cell membranes, Membrane vesicle. On the set-up: scale not given: the % may be the effect or the level left. As to conditions: mouse, p388, 250 µM.

Substrate in data set [8]: Cc1cc(=O)oc2cc(OS(=O)(=O)O)ccc12
Description: TP_TRANSPORTER: uptake (vesicle) in membrane vesicle from ABCG2-expressing mouse lymphoma(P388)cells. The format is functional, cell membranes.

Substrate in data set [9]: C[C@]12CC[C@@H]3c4ccc(OS(=O)(=O)O)cc4CC[C@H]3[C@@H]1CCC2=O
The description is as §1. The format is functional, cell membranes.

Substrate in data set [10]: CNc1nc2c(Cc3cccnc3)c(C)c(OS(=O)(=O)O)c(C)c2s1
The data set is described as §1. The format is functional, cell membranes.

For `C[C@]12CC[C@@H]3c4ccc(O)cc4CC[C@H]3[C@@H]1CCC2=O` [ESTRONE], at ABCG2 [1], the activity at 200 µM is 56%.

Regarding `CC[C@H](C)C(=O)O[C@H]1C[C@H](O)C=C2C=C[C@H](C)[C@H](CC[C@@H](O)C[C@@H](O)CC(=O)O)[C@H]21` [PRAVASTATIN], the activity at 200 µM at ABCG2 [2] was determined as 76%.

`O=C(O)[C@H]1O[C@@H](OCc2cc(=O)oc3cc(O)ccc23)[C@H](O)[C@@H](O)[C@@H]1O`: the Activity result in data set [3] was “substrate []”. Further, at ABCG2 [4], the activity at 500 µM was 84%.

As to `C[C@]12CC[C@H](OS(=O)(=O)O)CC1=CC[C@@H]1[C@@H]2CC[C@]2(C)C(=O)CC[C@@H]12` [PRASTERONE SULFURIC ACID], the Activity entry in data set [3] was “substrate []”.

On to `N[C@@H](CCC(=O)N[C@H](CSc1ccc([N+](=O)[O-])cc1[N+](=O)[O-])C(=O)NCC(=O)O)C(=O)O`, for which the Activity result in [3] is “substrate []”. Moreover, the activity at 80 µM at ABCG2 [5] amounted to 78%.

As to `COc1cccc2c1C(=O)c1c(O)c3c(c(O)c1C2=O)C[C@@](O)(C(=O)CO)C[C@@H]3O[C@H]1C[C@H](N)[C@H](O)[C@H](C)O1` [DOXORUBICIN], the activity at 1000 µM at ABCG2 [6] is 72%.

Regarding `C[C@]12CC[C@@H]3c4ccc(O)cc4CC[C@H]3[C@@H]1CC[C@@H]2O[C@@H]1O[C@H](C(=O)O)[C@@H](O)[C@H](O)[C@H]1O` [ESTRADIOL 17B GLUCURONIDE], the Activity entry in data set [3] was “substrate []”.

On to `CNc1nc2c(Cc3cccnc3)c(C)c(O[C@@H]3O[C@H](C(=O)O)[C@@H](O)[C@H](O)[C@H]3O)c(C)c2s1` [E3040 GLUCURONIDE], for which the results for the Activity result in data set [3] and in data set [7] were “substrate []” and 76%, respectively.

As to `CNc1nc2c(Cc3cccnc3)c(C)c(OS(=O)(=O)O)c(C)c2s1` [E3040 SULFATE], the Activity entry in data set [3] was “substrate []”.

With `CN(Cc1cnc2nc(N)nc(N)c2n1)c1ccc(C(=O)N[C@@H](CCC(=O)O)C(=O)O)cc1` [METHOTREXATE], the Activity entry in data set [3] was “substrate []”.

Regarding `Cc1cc(=O)oc2cc(OS(=O)(=O)O)ccc12`, in data set [3], the Activity entry is “substrate []”.

B1: Broad substrate specificity ATP-binding cassette transporter ABCG2 (Homo sapiens) (protein)
chain: MSSSNVEVFIPVSQGNTNGFPATASNDLKAFTEGAVLSFHNICYRVKLKSGFLPCRKPVEKEILSNINGIMKPGLNAILGPTGGGKSSLLDVLAARKDPSGLSGDVLINGAPRPANFKCNSGYVVQDDVVMGTLTVRENLQFSAALRLATTMTNHEKNERINRVIQELGLDKVADSKVGTQFIRGVSGGERKRTSIGMELITDPSILFLDEPTTGLDSSTANAVLLLLKRMSKQGRTIIFSIHQPRYSIFKLFDSLTLLASGRLMFHGPAQEALGYFESAGYHCEAYNNPADFFLDIINGDSTAVALNREEDFKATEIIEPSKQDKPLIEKLAEIYVNSSFYKETKAELHQLSGGEKKKKITVFKEISYTTSFCHQLRWVSKRSFKNLLGNPQASIAQIIVTVVLGLVIGAIYFGLKNDSTGIQNRAGVLFFLTTNQCFSSVSAVELFVVEKKLFIHEYISGYYRVSSYFLGKLLSDLLPMRMLPSIIFTCIVYFMLGLKPKADAFFVMMFTLMMVAYSASSMALAIAAGQSVVSVATLLMTICFVFMMIFSGLLVNLTTIASWLSWLQYFSIPRYGFTALQHNEFLGQNFCPGLNATGNNPCNYATCTGEEYLVKQGIDLSPWGLWKNHVALACMIVIFLTIAYLKLLFLKKYS
What is called Km is the substrate concentration at which the rate is half of its maximum. Take B1: the values for the Km in data set [8], in [9] and in [10] were 13 µM, 17 µM and 27 µM, respectively.
